In ChEMBL document CHEMBL3885861, “Open TG-GATES”:

Species on record: Rattus norvegicus
Assay: Open TG-GATES - Regimen: Daily Repeat
Format: toxicity, organism-based, Sprague-Dawley
Design: regimen Daily Repeat, gender Male, age 6 weeks
Conditions: in vivo, po, 0 mg/kg, route gavage, dose level Control; for APTT / Bas / Eos / Fbg / Hb / Ht / Lym / MCHC / MCV / Mono / Neu / PT / Plat / RBC / Ret / WBC: tissue Blood; for KIDNEY_L / KIDNEY_R / KIDNEY_TOTAL: tissue Kidney; for LIVER: tissue Liver; for ALP / ALT / AST / BUN / CRE / Ca / Cl / DBIL / GLC / IP / K / LDH / Na / PL / RALB / TBIL / TC / TG / TP / gamma-GTP: tissue Plasma

C1CCC(C(CC2CCCCN2)C2CCCCC2)CC1 (centres undefined) [PERHEXILINE]
TERMINAL_BW (72 h, time 3 day): 228.9 g
APTT (72 h, time 3 day): 21.9 s
Bas (72 h, time 3 day): 0%
Eos (72 h, time 3 day): 0.8%
Fbg (72 h, time 3 day): 312.4 mg/dL
Hb (72 h, time 3 day): 13.2 g/dL
Ht (72 h, time 3 day): 39.2%
Lym (72 h, time 3 day): 79%
MCHC (72 h, time 3 day): 33.8%
MCV (72 h, time 3 day): 63.9 fL
Mono (72 h, time 3 day): 2.8%
Neu (72 h, time 3 day): 16.2%
PT (72 h, time 3 day): 16.7 s
Plat (72 h, time 3 day): 133 x10_4/uL
RBC (72 h, time 3 day): 613.6 x10_4/ul
Ret (72 h, time 3 day): 7%
WBC (72 h, time 3 day): 89.3 x10_2/uL
KIDNEY_L (72 h, time 3 day): 1.1 g
KIDNEY_R (72 h, time 3 day): 1 g
KIDNEY_TOTAL (72 h, time 3 day): 2.1 g
LIVER (72 h, time 3 day): 11.1 g
ALP (72 h, time 3 day): 1695 IU/L
ALT (72 h, time 3 day): 45.8 IU/L
AST (72 h, time 3 day): 76.4 IU/L
BUN (72 h, time 3 day): 16.4 mg/dL
CRE (72 h, time 3 day): 0.1 mg/dL
Ca (72 h, time 3 day): 11 mg/dL
Cl (72 h, time 3 day): 107.2 meq/L
DBIL (72 h, time 3 day): 0 mg/dL
GLC (72 h, time 3 day): 192.6 mg/dL
IP (72 h, time 3 day): 6.9 mg/dL
K (72 h, time 3 day): 4.3 meq/L
LDH (72 h, time 3 day): 248.8 IU/L
Na (72 h, time 3 day): 143.2 meq/L
PL (72 h, time 3 day): 149.4 mg/dL
RALB (72 h, time 3 day): 3.2 g/dL
TBIL (72 h, time 3 day): 0.01 mg/dL
TC (72 h, time 3 day): 75.6 mg/dL
TG (72 h, time 3 day): 113.8 mg/dL
TP (72 h, time 3 day): 5.8 g/dL
gamma-GTP (72 h, time 3 day): 1 IU/L
TERMINAL_BW ([…], time 7 day): 255.2 g
TERMINAL_BW ([…], time 14 day): 290.3 g
TERMINAL_BW ([…], time 28 day): 335.5 g
APTT ([…], time 7 day): 21.5 s
Bas ([…], time 7 day): 0%
Eos ([…], time 7 day): 0.6%
Fbg ([…], time 7 day): 316.4 mg/dL
Hb ([…], time 7 day): 13.5 g/dL
Ht ([…], time 7 day): 38.5%
Lym ([…], time 7 day): 81.8%
MCHC ([…], time 7 day): 35.2%
MCV ([…], time 7 day): 61.3 fL
Mono ([…], time 7 day): 1.4%
Neu ([…], time 7 day): 15%
PT ([…], time 7 day): 16.1 s
Plat ([…], time 7 day): 118.5 x10_4/uL
RBC ([…], time 7 day): 629 x10_4/ul
Ret ([…], time 7 day): 5.6%
WBC ([…], time 7 day): 110.4 x10_2/uL
APTT ([…], time 14 day): 23.3 s
Bas ([…], time 14 day): 0%
Eos ([…], time 14 day): 0.2%
Fbg ([…], time 14 day): 294 mg/dL
Hb ([…], time 14 day): 15 g/dL
Ht ([…], time 14 day): 42.7%
Lym ([…], time 14 day): 82%
MCHC ([…], time 14 day): 35.2%
MCV ([…], time 14 day): 60.8 fL
Mono ([…], time 14 day): 1.2%
Neu ([…], time 14 day): 15.2%
PT ([…], time 14 day): 16.2 s
Plat ([…], time 14 day): 116.2 x10_4/uL
RBC ([…], time 14 day): 702.8 x10_4/ul
Ret ([…], time 14 day): 3.5%
WBC ([…], time 14 day): 97.2 x10_2/uL
APTT ([…], time 28 day): 21.5 s
Bas ([…], time 28 day): 0%
Eos ([…], time 28 day): 0.6%
Fbg ([…], time 28 day): 316.4 mg/dL
Hb ([…], time 28 day): 13.5 g/dL
Ht ([…], time 28 day): 38.5%
Lym ([…], time 28 day): 81.8%
MCHC ([…], time 28 day): 35.2%
MCV ([…], time 28 day): 61.3 fL
Mono ([…], time 28 day): 1.4%
Neu ([…], time 28 day): 15%
PT ([…], time 28 day): 16.1 s
Plat ([…], time 28 day): 118.5 x10_4/uL
RBC ([…], time 28 day): 629 x10_4/ul
Ret ([…], time 28 day): 5.6%
WBC ([…], time 28 day): 110.4 x10_2/uL
KIDNEY_L ([…], time 7 day): 1.1 g
KIDNEY_R ([…], time 7 day): 1.1 g
KIDNEY_TOTAL ([…], time 7 day): 2.2 g
KIDNEY_L ([…], time 14 day): 1.1 g
KIDNEY_R ([…], time 14 day): 1.1 g
KIDNEY_TOTAL ([…], time 14 day): 2.3 g
KIDNEY_L ([…], time 28 day): 1.2 g
KIDNEY_R ([…], time 28 day): 1.2 g
KIDNEY_TOTAL ([…], time 28 day): 2.5 g
LIVER ([…], time 7 day): 11.8 g
LIVER ([…], time 14 day): 12.3 g
LIVER ([…], time 28 day): 12.9 g
ALP ([…], time 7 day): 1691 IU/L
ALT ([…], time 7 day): 38 IU/L
AST ([…], time 7 day): 67.6 IU/L
BUN ([…], time 7 day): 18.6 mg/dL
CRE ([…], time 7 day): 0.2 mg/dL
Ca ([…], time 7 day): 10.5 mg/dL
Cl ([…], time 7 day): 106.6 meq/L
DBIL ([…], time 7 day): 0.002 mg/dL
GLC ([…], time 7 day): 190.4 mg/dL
IP ([…], time 7 day): 6.8 mg/dL
K ([…], time 7 day): 4.1 meq/L
LDH ([…], time 7 day): 174.2 IU/L
Na ([…], time 7 day): 143.6 meq/L
PL ([…], time 7 day): 152.6 mg/dL
RALB ([…], time 7 day): 3.1 g/dL
TBIL ([…], time 7 day): 0.014 mg/dL
TC ([…], time 7 day): 79.8 mg/dL
TG ([…], time 7 day): 101 mg/dL
TP ([…], time 7 day): 5.8 g/dL
gamma-GTP ([…], time 7 day): 1.6 IU/L
ALP ([…], time 14 day): 1487.8 IU/L
ALT ([…], time 14 day): 39.2 IU/L
AST ([…], time 14 day): 71.8 IU/L
BUN ([…], time 14 day): 19 mg/dL
CRE ([…], time 14 day): 0.2 mg/dL
Ca ([…], time 14 day): 10.2 mg/dL
Cl ([…], time 14 day): 107 meq/L
DBIL ([…], time 14 day): 0 mg/dL
GLC ([…], time 14 day): 192 mg/dL
IP ([…], time 14 day): 6.1 mg/dL
K ([…], time 14 day): 4.2 meq/L
LDH ([…], time 14 day): 180 IU/L
Na ([…], time 14 day): 143.2 meq/L
PL ([…], time 14 day): 134 mg/dL
RALB ([…], time 14 day): 3.2 g/dL
TBIL ([…], time 14 day): 0.005 mg/dL
TC ([…], time 14 day): 59 mg/dL
TG ([…], time 14 day): 131.5 mg/dL
TP ([…], time 14 day): 5.8 g/dL
gamma-GTP ([…], time 14 day): 1 IU/L
ALP ([…], time 28 day): 1236.4 IU/L
ALT ([…], time 28 day): 34.4 IU/L
AST ([…], time 28 day): 60 IU/L
BUN ([…], time 28 day): 17.8 mg/dL
CRE ([…], time 28 day): 0.2 mg/dL
Ca ([…], time 28 day): 10.1 mg/dL
Cl ([…], time 28 day): 108.6 meq/L
DBIL ([…], time 28 day): 0 mg/dL
GLC ([…], time 28 day): 204.2 mg/dL
IP ([…], time 28 day): 5.6 mg/dL
K ([…], time 28 day): 4.2 meq/L
LDH ([…], time 28 day): 148.4 IU/L
Na ([…], time 28 day): 143.6 meq/L
PL ([…], time 28 day): 129.6 mg/dL
RALB ([…], time 28 day): 3 g/dL
TBIL ([…], time 28 day): 0.008 mg/dL
TC ([…], time 28 day): 63 mg/dL
TG ([…], time 28 day): 92.8 mg/dL
TP ([…], time 28 day): 6 g/dL
gamma-GTP ([…], time 28 day): 1.4 IU/L
